The results in this text go back to patent US10144715B2, “Piperazine derivatives as liver X receptor modulators” (priority 2014, dated 2018).

One experiment addresses LXR α LBD protein (Homo sapiens (Human), UniProt Q13133). The experiment is described as follows: LXR α radioligand binding assay (SPA, competition with [3H]TO901317). As to conditions: read-out: LXRα Binding Ki.
Experiment [1] has as its target Gal4 DNA binding domain fused to the LBD of LXRα in HEK293 cells (Homo sapiens (Human), UniProt Q13133). The experiment is described as follows: LXR luciferase transcriptional reporter gene assay, agonist mode, LXRα. In kind it is cell-based. For orientation: A reporter such as luciferase makes a cellular process visible.
In experiment [2] the target is Gal4 DNA binding domain fused to the LBD of LXRβ in HEK293 cells (Homo sapiens (Human), UniProt P55055). Put plainly: cell-based.
Sequence of Gal4 DNA binding domain fused to the LBD of LXRβ in HEK293 cells (P55055 222-460 limits assumed): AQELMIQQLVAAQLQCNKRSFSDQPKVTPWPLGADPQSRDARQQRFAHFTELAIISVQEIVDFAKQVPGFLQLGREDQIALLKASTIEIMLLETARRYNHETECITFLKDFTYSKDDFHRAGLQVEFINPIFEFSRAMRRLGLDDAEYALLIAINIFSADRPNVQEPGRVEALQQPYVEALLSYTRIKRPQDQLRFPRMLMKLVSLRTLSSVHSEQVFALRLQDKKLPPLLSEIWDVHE
The next experiment concerns the target LXR β LBD protein (Homo sapiens (Human), UniProt P55055). Put plainly: biochemical. In kind it is binding.
[3] abbreviates: Biological Test Example 2, agonist mode.
[4] abbreviates: agonist mode, read-out: Cell LXRα EC50.

Where two headings read alike, the source gives them in different places. Some results are limits rather than exact numbers.

Sequence of LXR β LBD protein (P55055 222-460 limits assumed): as above
Sequence of LXR α LBD protein (Q13133 209-447): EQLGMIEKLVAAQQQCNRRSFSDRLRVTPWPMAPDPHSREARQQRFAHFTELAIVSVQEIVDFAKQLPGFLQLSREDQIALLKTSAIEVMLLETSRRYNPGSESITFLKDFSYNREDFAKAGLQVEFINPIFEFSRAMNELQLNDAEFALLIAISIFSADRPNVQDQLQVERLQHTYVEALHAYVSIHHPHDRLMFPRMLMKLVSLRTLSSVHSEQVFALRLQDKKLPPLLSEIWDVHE
Sequence of Gal4 DNA binding domain fused to the LBD of LXRα in HEK293 cells (Q13133 209-447): as above

Broadly, the Ki is a dissociation constant, usually derived from enzyme kinetics or from competition with a known ligand. By EC50 is commonly meant the midpoint of the concentration-response curve. `CC(C)[C@@H]1CN(c2ccc(F)c(S(C)(=O)=O)c2)CCN1C(=O)OC(C)(C)C(F)(F)F` [5-2, 1,1,1-trifluoro-2-methylpropan-2-yl (R)-4-(4-fluoro-3-(methylsulfonyl)phenyl)-2-isopropylpiperazine-1-carboxylate]: at LXR α LBD protein, the Ki is 163 nM. In experiment [1], the “Cell LXRα efficacy” value is on record as 947 (73) % and the EC50 was found to be 947 nM. The same molecule had an EC50 in experiment [2] of 111 nM.
The like results for `CC(C)[C@@H]1CN(c2ccc(F)c(S(C)(=O)=O)c2)CCN1C(=O)OC(C)C(F)(F)F` (stereo partly drawn) [5-3, 1,1,1-trifluoropropan-2-yl (2R)-4-(4-fluoro-3-(methylsulfonyl)phenyl)-2-isopropylpiperazine-1-carboxylate] were, in that order, 474 nM, 1595 (86) %, 1590 nM and 198 nM.
For the molecule `CC(C)[C@@H]1CN(c2ccc(F)c(S(C)(=O)=O)c2)CCN1c1nccc(CO)n1` [11-15, (R)-(2-(4-(4-fluoro-3-(methylsulfonyl)phenyl)-2-isopropylpiperazin-1-yl)pyrimidin-4-yl)methanol], the Ki at LXR β LBD protein was 930 nM. This molecule returned an EC50 in experiment [2] of 2480 nM. Besides, the “Cell LXRβ efficacy” value in experiment [2] (agonist mode) is given as 2479 (33) %.
For the molecule `CC(C)[C@@H]1CN(c2ccc(CO)c(S(C)(=O)=O)c2)CCN1c1nc(C(F)(F)F)c(CO)o1` [11-16, (R)-(2-(4-(4-(hydroxymethyl)-3-(methylsulfonyl)phenyl)-2-isopropylpiperazin-1-yl)-4-(trifluoromethyl)oxazol-5-yl)methanol], the Ki at LXR β LBD protein (read-out: LXRβ Binding Ki) worked out at 95 nM. The molecule also returned a 50% effective concentration (EC50) in experiment [2] of 467 nM. Moreover, the “Cell LXRβ efficacy” value in experiment [2] (agonist mode) is 467 (76) %.
As for `CC(C)[C@@H]1CN(c2ccc(CO)c(S(C)(=O)=O)c2)CCN1c1nc(C(F)(F)F)c(CO)s1` [11-17, (R)-(2-(4-(4-(hydroxymethyl)-3-(methylsulfonyl)phenyl)-2-isopropylpiperazin-1-yl)-4-(trifluoromethyl)thiazol-5-yl)methanol], the Ki on LXR β LBD protein (read-out: LXRβ Binding Ki) was found to be 53 nM. In addition, in experiment [2], the response was half-maximal at 292 nM (EC50). Moreover, the “Cell LXRβ efficacy” value in experiment [2] (agonist mode) is 292 (89) %.
In the case of `CC(C)[C@@H]1CN(c2ccc(F)c(S(C)(=O)=O)c2)CCN1c1ncc(C(=O)N(C)C2CN(C(=O)OC(C)(C)C)C2)c(C(F)(F)F)n1` [17-22, tert-butyl (R)-3-(2-(4-(4-fluoro-3-(methylsulfonyl)phenyl)-2-isopropylpiperazin-1-yl)-N-methyl-4-(trifluoromethyl)pyrimidine-5-carboxamido)azetidine-1-carboxylate], the Ki on LXR α LBD protein came out at 670 nM. The EC50 in experiment [1] and in experiment [2] was above 20000 nM throughout.
Regarding `CC(C)[C@@H]1CN(c2cccc(S(C)(=O)=O)c2)CCN1c1ccc(C(C)(F)F)cn1` [20-2, (R)-1-(5-(1,1-difluoroethyl)pyridin-2-yl)-2-isopropyl-4-(3-(methylsulfonyl)phenyl)piperazine], the Ki at LXR β LBD protein (read-out: LXRβ Binding Ki) came out at 73 nM. The same molecule returned an EC50 in experiment [2] of 706 nM. Moreover, in experiment [2] (agonist mode), the “Cell LXRβ efficacy” value was 706 (43) %.
For `CC(C)[C@@H]1CN(c2ccc(F)c(S(C)(=O)=O)c2)CCN1c1ccc(C(C)(O)C(F)(F)F)cn1` (stereo partly drawn) [20-3, 1,1,1-trifluoro-2-(6-((R)-4-(4-fluoro-3-(methylsulfonyl)phenyl)-2-isopropylpiperazin-1-yl)pyridin-3-yl)propan-2-ol] the same measures were 52 nM, 443 nM and 443 (48) %.
Take `CC(C)C1CN(c2ccc(C#N)c(S(C)(=O)=O)c2)CCN1CC1CCC(C(F)(F)F)CC1` [50-2, 4-((S)-3-isopropyl-4-(((1r,4S)-4-(trifluoromethyl)cyclohexyl)methyl)piperazin-1-yl)-2-(methylsulfonyl)benzonitrile]: the Ki on LXR α LBD protein was determined as 358 nM. In experiment [1], the “Cell LXRα efficacy” value is listed as 721 (72) %. The EC50 in experiment [1] (read-out: Cell LXRα EC50) was found to be 721 nM. Besides, the “Cell LXRβ efficacy” value in experiment [2] (setting [3]) is 542 (85) %.
As to `CC1(C)CCC(O)(CN2CCN(c3cccc(S(C)(=O)=O)c3)C[C@H]2c2ccccc2)CC1` [53-2, (R)-4,4-dimethyl-1-((4-(3-(methylsulfonyl)phenyl)-2-phenylpiperazin-1-yl)methyl)cyclohexan-1-ol], the inhibition constant Ki at LXR β LBD protein (Biological Test Example 1, read-out: LXRβ Binding Ki) is 609 nM. In experiment [2], this molecule returned an EC50 of 2080 nM. Further, the “Cell LXRβ efficacy” value in experiment [2] (setting [3]) was 2082 (56) %.
As for `Cc1nc(N2CCN(c3ccc(F)c(S(C)(=O)=O)c3)C[C@H]2C(C)C)ncc1S(C)(=O)=O` [Cpd No 3-3, (R)-2-(4-(4-fluoro-3-(methylsulfonyl)phenyl)-2-isopropylpiperazin-1-yl)-4-methyl-5-(methylsulfonyl)pyrimidine], on LXR α LBD protein, the Ki is above 3330 nM. Besides, the “Cell LXRα efficacy” value in experiment [1] is listed as 9543 (37) %. Also, the EC50 in experiment [1] (setting [4]) came to 9540 nM.
For the molecule `CC(C)[C@@H]1CN(c2ccc(F)c(S(C)(=O)=O)c2)CCN1c1nc2cccnc2s1` [Cpd No 7-57, (R)-2-(4-(4-fluoro-3-(methylsulfonyl)phenyl)-2-isopropylpiperazin-1-yl)thiazolo[5,4-b]pyridine], at LXR β LBD protein (read-out: LXRβ Binding Ki), the Ki was determined as 12 nM. In addition, in experiment [2], the “Cell LXRβ efficacy” value was 44 (90) % and the EC50 is 44 nM.
As to `CC(C)[C@@H]1CN(c2ccc(F)c(S(N)(=O)=O)c2)CCN1c1ccc(C(F)(F)F)cn1` [Cpd No 18-1, (R)-2-fluoro-5-(3-isopropyl-4-(5-(trifluoromethyl)pyridin-2-yl)piperazin-1-yl)benzenesulfonamide], the Ki on LXR α LBD protein was 73 nM. Besides, the “Cell LXRα efficacy” value in experiment [1] is 591 (104) %. In experiment [1] (setting [4]), the EC50 stood at 591 nM.
Consider `CC(C)[C@@H]1CN(c2ccc(F)c(S(C)(=O)=O)c2)CCN1c1ncc(C(F)(F)F)cc1N` [Cpd No 21-1, (R)-2-(4-(4-fluoro-3-(methylsulfonyl)phenyl)-2-isopropylpiperazin-1-yl)-5-(trifluoromethyl)pyridin-3-amine], for which the Ki at LXR α LBD protein turned out to be 608 nM. Also, in experiment [1], the “Cell LXRα efficacy” value is recorded as 3767 (74) % and it took 3770 nM to reach a half-maximal effect (EC50).
Regarding `CC(C)[C@@H]1CN(c2ccc(F)c(S(C)(=O)=O)c2)CCN1c1nc(C(F)(F)F)cc(=O)[nH]1` [Cpd No 24-1, (R)-2-(4-(4-fluoro-3-(methylsulfonyl)phenyl)-2-isopropylpiperazin-1-yl)-6-(trifluoromethyl)pyrimidin-4-ol], the Ki on LXR α LBD protein was above 3330 nM. Also, the EC50 in experiment [1] (read-out: Cell LXRα EC50) was above 20000 nM.
For `CC(C)[C@@H]1CN(c2ccc(CO)c(S(C)(=O)=O)c2)CCN1c1ncc(C(C)(C)C#N)c(C(F)(F)F)n1` [Cpd No 25-1, (R)-2-(2-(4-(4-(hydroxymethyl)-3-(methylsulfonyl)phenyl)-2-isopropylpiperazin-1-yl)-4-(trifluoromethyl)pyrimidin-5-yl)-2-methylpropanenitrile], the Ki on LXR α LBD protein was found to be 32 nM. In addition, the “Cell LXRα efficacy” value in experiment [1] is listed as 174 (44) %. In addition, in experiment [1] (setting [4]), the EC50 was 174 nM.
The like results for `CC(C)[C@@H]1CN(c2ccc(CO)c(S(C)(=O)=O)c2)CCN1c1nc(C(F)(F)F)c(C(C)(C)O)s1` [Cpd No 27-1, (R)-2-(2-(4-(4-(hydroxymethyl)-3-(methylsulfonyl)phenyl)-2-isopropylpiperazin-1-yl)-4-(trifluoromethyl)thiazol-5-yl)propan-2-ol] were, in that order, 27 nM, 225 (97) % and 225 nM.
For `COc1cnc(N2CCN(c3ccc(F)c(S(C)(=O)=O)c3)C[C@H]2C(C)C)nc1C(F)(F)F` [Cpd No 29-1, (R)-2-(4-(4-fluoro-3-(methylsulfonyl)phenyl)-2-isopropylpiperazin-1-yl)-5-methoxy-4-(trifluoromethyl)pyrimidine], the Ki on LXR α LBD protein was 9 nM. Also, in experiment [1], the “Cell LXRα efficacy” value was 266 (104) %. In experiment [1] (setting [4]), the EC50 was found to be 266 nM.
Consider `CC(C)[C@@H]1CN(c2ccc(F)c(S(C)(=O)=O)c2)CCN1c1ncc(C(F)(F)F)c(Cl)n1` [Cpd No 36-1, (R)-4-chloro-2-(4-(4-fluoro-3-(methylsulfonyl)phenyl)-2-isopropylpiperazin-1-yl)-5-(trifluoromethyl)pyrimidine], for which the Ki at LXR α LBD protein was found to be 30 nM. Besides, the “Cell LXRα efficacy” value in experiment [1] was 305 (100) %. For the same molecule, in experiment [1] (read-out: Cell LXRα EC50), the EC50 worked out at 305 nM.
Consider `CC(O)c1nc(N2CCN(c3ccc(F)c(S(C)(=O)=O)c3)C[C@H]2C(C)C)ncc1C(F)(F)F` (stereo partly drawn) [Cpd No 38-1, 1-(2-((R)-4-(4-fluoro-3-(methylsulfonyl)phenyl)-2-isopropylpiperazin-1-yl)-5-(trifluoromethyl)pyrimidin-4-yl)ethan-1-ol], for which the Ki at LXR α LBD protein was found to be 67 nM. Besides, the “Cell LXRα efficacy” value in experiment [1] is listed as 165 (89) %. The EC50 in experiment [1] (setting [4]) turned out to be 165 nM.
As to `CC(C)[C@@H]1CN(c2ccc(F)c(S(C)(=O)=O)c2)CCN1c1ncc(C(F)(F)F)c(C#N)n1` [Cpd No 43-1, (R)-2-(4-(4-fluoro-3-(methylsulfonyl)phenyl)-2-isopropylpiperazin-1-yl)-5-(trifluoromethyl)pyrimidine-4-carbonitrile], the Ki at LXR α LBD protein was 26 nM. Moreover, the “Cell LXRα efficacy” value in experiment [1] was 136 (101) %. In experiment [1] (read-out: Cell LXRα EC50), the EC50 was 136 nM.
As to `CC(C)[C@H]1CN(c2ccc(C#N)c(S(C)(=O)=O)c2)CCN1C[C@H]1CC[C@@H](C(F)(F)F)CC1` [Cpd No 50-1, 4-((S)-3-isopropyl-4-(((1s,4R)-4-(trifluoromethyl)cyclohexyl)methyl)piperazin-1-yl)-2-(methylsulfonyl)benzonitrile], the Ki on LXR α LBD protein was 107 nM. For the same molecule, the “Cell LXRα efficacy” value in experiment [1] was 181 (100) %. Further, the EC50 in experiment [1] (read-out: Cell LXRα EC50) is 181 nM. Further, the “Cell LXRβ efficacy” value in experiment [2] (setting [3]) turned out to be 88%.
Regarding `CC(=O)NCc1ccc(N2CCN(c3nccc(C(F)(F)F)n3)[C@H](C(C)C)C2)cc1S(C)(=O)=O` [Cpd No 54-1, (R)-N-(4-(3-isopropyl-4-(4-(trifluoromethyl)pyrimidin-2-yl)piperazin-1-yl)-2-(methylsulfonyl)benzyl)acetamide], at LXR α LBD protein (Biological Test Example 1), the Ki amounted to 716 nM. The “Cell LXRα efficacy” value in experiment [1] (setting [3]) is reported as 72%. For the same molecule, the EC50 in experiment [1] (Biological Test Example 2, agonist mode, read-out: Cell LXRα EC50) was determined as 2200 nM.
